Test results taken from patent publication US6472526B1, “Imidazole derivatives having an inhibitory activity for farnesyl transferase and process for preparation thereof” (LG Chemical Ltd., priority 1997, dated 2002).
pIC50: −log10 of the molar value.

Experiments:
[1] = target: T1, Ras farnesyl transferase (Homo sapiens, UniProt P49354+P49356); assay: In vitro inhibitory activity for Ras farnesyl transferase, K-Ras substrate; type: biochemical; details: in vitro farnesyl transferase assay, K-Ras; read-out: K-Ras IC50
T1 construct: made in house

[2] = target: T1, Ras farnesyl transferase; assay: In vitro inhibitory activity for Ras farnesyl transferase, H-Ras substrate; type: biochemical; details: recombinant farnesyl transferase 4.5 nM, Ras substrate protein 1.5 μM, tritium-farnesylpyrophosphate 0.15 μM, 30 minutes at 37° C.; read-out: H-Ras IC50
Description: In the present experiment, Ras farnesyl transferase produced by genetic recombination techniques according to the improved Pompliano's method (Pompliano et al., Biochemistry, 1992, 31, 3800) was used, and Ras substrate (Ras-CVLS) protein described in Korean Patent Appln. No. 97-14409 was used after it has been purified according to the known method (see, Chung et al., Biochimica et Biophysica Acta, 1992, 278, 1129).
The enzyme reaction was performed in 50 μl of 50 mM Sodium HEPES buffer solution containing 25 mM of potassium chloride, 25 mM of magnesium chloride, 10 mM of DTT and 50 μM of zinc chloride. 1.5 μM of Ras substrate protein, 0.15 μM of tritium-farnesylpyrophosphate and 4.5 nM of farnesyl transferase were used.
More specifically, in the initial step, farnesyl transferase was added to the above buffer solution, reaction was maintained for 30 minutes at 37° C. and then the reaction was stopped by adding 1 ml of ethanol solution containing 1M HCl. The formed precipitates were adsorbed to GF/B filter using Hopper harvestor(Hopper #FH 225V) for filter-binding, washed with ethanol, and then radioactivity of the dried filter was measured using LKB β counter. Enzyme titer was measured in the unsaturated state of substrate where the concentrations of Ras substrate protein and farnesyl transferase have quantitative relationship. The compound according to the present invention dissolved in dimethyl sulfoxide (DMSO) was added to the reaction solution in an amount of less than 5% of the total reaction solution, and then the enzyme inhibitory activity thereof was measured. The enzyme inhibitory activity was represented by percentage of the amount of farnesyl incorporated into the Ras substrate protein in the presence of the test compound to that in the absence of the test compound. IC50 of the test compound was defined as the concentration at which 50% of the enzyme activity was inhibited.

[3] = target: T2, Ras farnesyl transferase (Rattus norvegicus, UniProt Q02293+Q04631); assay: In vivo (cellular) inhibitory activity for Ras farnesyl transferase, Rat2 cell line transformed with fused protein of H-Ras substituted with polybasic lysine domain at C-terminus of K-Ras; type: cell-based; details: Rat2 cell line transformed with H-Ras fused with polybasic lysine domain of K-Ras C-terminus; concentration inhibiting 50% of farnesyl bonding; read-out: K-Ras CIC50
T2 construct: endogenous in cells; host or cells: Rat2 fibroblasts transformed with H-Ras or with an H-Ras/K-Ras C-terminus fusion
Description: (§1) In the present experiment, Rat2 cell line which expresses C-Harvey-Ras protein having transforming activity and Rat2 cell line (Korean patent application No. 97-14409) which is transformed with fused protein of H-Ras substituted with polybasic lysine domain at C-terminus of K-Ras were used. The experiment was performed by the modified Declue's method (Declue. J. E. et al., Cancer Research, 1991, 51, 712). Hereinafter, the experimental method will be described in more detail.
(§2) 3×10^5 cells of transformed Rat2 fibroblast cell line were sprayed on 60 mm cell cultivation dish and cultivated for 48 hours in a cell incubator at 37° C. and after 50% or more of density was reached, it was treated with the test compounds. The compound according to the present invention dissolved in dimethylsulfoxide (DMSO) was used. 1% concentration of dimethylsulfoxide was used in both control and test groups. After 4 hours from the treatment with the compound, methionine labeled with 150 μCi of radioactive isotope [^35S] per 1 ml of medium was added and after cultivating for 20 hours, the cells were, washed with physiological saline water. The cells were lysed using 1 ml of cold cell lysis buffer solution (50 mM of Sodium HEPES buffer solution containing 5mM of magnesium chloride, 1 mM of DTT, 1% NP 40, 1 mM of EDTA, 1 mM of PMSF, 2 μM of leupeptin, 2 μM of pepstatin A and 2 μM of antipain) and the supernatant wherein the cells were lysed was obtained by high-velocity centrifugation of 12,000 g×5 minutes. The amount of radioisotope in the supernatant was measured and standardized to obtain a quantitative result in immunoprecipitation reaction and then, Y13-259, a monoclonal antibody specifically binding to Ras protein (Furth, M. E. et al., J. Virol, 1982, 43, 294) was added and reacted for 15 hours at 4° C. Protein A(combined with goat anti-murine immunoglobulin antibody)-agarose suspension was added to the solution and reacted for 1 hour at 4° C. and then, to remove the unspecific binding product, immunoprecipitates were washed with a buffer solution (50 mM Tris chloride buffer solution containing 50 mM of sodium chloride, 0.5% of sodium dioxycolate, 0.5% of NP 40 and 0.1% of SDS). The precipitates were added to a buffer solution for electrophoresis and boiled and then, electrophoresis was performed using 13.5% of SDS polyacrylamide gel. After electrophoresis, the gel was fixed and dried. Then, the gel was exposed to X-ray film, developed printed. From the result of the experiment, intensities of band of in combined with or without farnesyl of Ras protein were measured, the concentration of the test compound inhibiting 50% of farnesyl bonding was defined as […], an in vivo Ras farnesyl transferase inhibitory activity.

[4] = target: T2, Ras farnesyl transferase; assay: In vivo (cellular) inhibitory activity for Ras farnesyl transferase, Rat2 cell line which expresses C-Harvey-Ras protein; type: cell-based; details: Rat2 cell line expressing C-Harvey-Ras; concentration inhibiting 50% of farnesyl bonding of Ras protein; read-out: H-Ras CIC50
Description: as §1, §2

Row | Compound | pIC50 [1] | pIC50 [2] | pIC50 [3] | pIC50 [4]
1 | O=C(c1nc(Cc2cncn2Cc2ccc(Cl)cc2)sc1-c1cccc2ccccc12)N1CCOCC1 [Compound 146, 2-[1-(4-Chlorobenzyl)-1H-imidazol-5-ylmethyl]-4-(morpholin-4-yl)carbonyl-5-(naphthalen-1-yl)thiazole] | 5.00 | 7.05 |  | 
2 | CCOC(=O)c1nc(Cc2cnc[nH]2)sc1-c1cccc2ccccc12 [Compound 144, 4-Ethoxycarbonyl-2-(1H-imidazol-5-ylmethyl)-5-(naphthalen-1-yl)thiazole] |  | 6.42 | < 4.30 | 
3 | 3-[N-(2-Methoxyethyl)N-methyl]carbamoyl-4-(naphthalen-1-yl)-1-(1-pentyl-1H-imidazol-5-yl)methyl-1H-pyrrole [Compound 117] |  |  | > 4.30 | 
4 | O=C(c1sc(Cc2cncn2Cc2ccc(Cl)cc2)nc1-c1cccc2ccccc12)N1CCOCC1 [Compound 149, 2-[1-(4-Chlorobenzyl)-1H-imidazol-5-ylmethyl]-5-(morpholin-4-yl)carbonyl-4-(naphthalen-1-yl)thiazole] | < 4.30 | 5.30 | < 4.30 | 
5 | O=C(OCc1ccccc1)N1CCC(Cn2cncc2Cn2cc(C(=O)N3CCOCC3)c(-c3cccc4ccccc34)n2)CC1 [Compound 158, 1-[1-(1-Benzyloxycarbonyl-piperidin-4-ylmethyl)-1H-imidazol-5-ylmethyl]-4-(morpholin-4-yl)carbonyl-3-(naphthalen-1-yl)-1H-pyrazole] | 5.70 | 6.60 | 4.52 | 
6 | 1-(1-Decyl-1H-imidazol-5-yl)methyl-3-[N-(2-methoxyethyl)-N-methyl]carbamoyl-4-(naphthalen-1-yl-1H-pyrrole [Compound 119] |  |  | > 4.52 | 
7 | N#Cc1ccc(Cn2cncc2Cn2cc(C(=O)N3CCOCC3)c(-c3cccc4ccccc34)n2)cc1 [Compound 162, 1-[1-(4-Cyanobenzyl)-1H-imidazol-5-ylmethyl]-4-(morpholin-4-yl)carbonyl-3-(naphthalen-1-yl)-1H-pyrazole] | 5.70 | 6.60 |  | 
8 | COC(=O)N1CCC(Cn2cncc2Cn2cc(C(=O)N3CCOCC3)c(-c3cccc4ccccc34)n2)CC1 [Compound 159] | 5.40 | 6.52 |  | 5.92
9 | O=C(c1cn(Cc2cncn2Cc2ccc(Cl)cc2)nc1-c1cccc2ccccc12)N1CCOCC1 [Compound 161, 1-[1-(4-Chlorobenzyl)-1H-imidazol-5-ylmethyl]-4-(morpholin-4-yl)carbonyl-3-(naphthalen-1-yl)-1H-pyrazole] | 5.70 | 6.70 |  | 
10 | 3-[N-(2-Methoxyethyl)-N-methyl]carbamoyl-4-(naphthalen-1-yl)-1-(1-octyl-1H-imidazol-5-yl)methyl-1H-pyrrole [Compound 118] |  |  | > 4.40 | 

The next lines start with the values.

Row | pIC50 [1] | pIC50 [2] | pIC50 [3] | pIC50 [4] | Compound
11 | 5.00 to 7.00 | 7.85 | 4.00 to 5.00 |  | CN1CCN(C(=O)c2cn(Cc3c[nH]cn3)cc2-c2cccc3ccccc23)CC1 [Compound 89]
12 |  |  | > 4.70 |  | COCCN(C)C(=O)c1cn(Cc2cncn2CCCOC(C)C)cc1-c1cccc2ccccc12 [Compound 124, 1-[1-(3-Isopropoxypropyl)-1H-imidazol-5-yl]methyl-3-[N-(2-methoxyethyl)-N-methyl]carbamoyl-4(naphthalen-1-yl)-1H-pyrrole]
13 |  |  | > 4.40 |  | COCCN(C)C(=O)c1cn(Cc2cncn2CCOC)cc1-c1cccc2ccccc12 [Compound 121, 1-[1-(2-Methoxyethyl)-1H-imidazol-5-yl]methyl-3-[N-(2-methoxyethyl)-N-methyl]carbamoyl-4-(naphthalen-1-yl)-1H-pyrrole]
14 | 7.15 | 7.64 |  | 7.00 | COCCN(C)C(=O)c1cn(Cc2cncn2CC2CCN(C(=O)OCc3ccccc3)CC2)nc1-c1cccc2ccccc12 [Compound 152, 1-[1-(1-Benzyloxycarbonyl-piperidin-4-ylmethyl)-1H-imidazol-5-ylmethyl]-4-[N-(2-methoxyethyl)-N-methyl]carbamoyl-3-(naphthalen-1-yl)-1H-pyrazole]
15 |  |  | > 4.40 |  | CCOCCCn1cncc1Cn1cc(C(=O)N(C)CCOC)c(-c2cccc3ccccc23)c1 [Compound 123, 1-[1-(3-Ethoxypropyl)-1H-imidazol-5-yl]methyl-3-[N-(2-methoxyethyl)-N-methyl]carbamoyl-4-(naphthalen-1-yl)-1H-pyrrole]
16 | 5.00 | 6.82 | < 4.30 |  | Cn1cncc1Cn1cc(C(=O)N2CCOCC2)c(-c2cccc3ccccc23)n1 [Compound 163, 1-(1-Methyl-1H-imidazol-5-ylmethyl)-4-(morpholin-4-yl)carbonyl-3-(naphthalen-1-yl)-1H-pyrazole]
17 | 8.82 | 9.22 |  | 8.10 | COCCN(C)C(=O)c1cn(Cc2cncn2Cc2ccc(C#N)cc2)cc1-c1cccc2ccccc12 [Compound 110, 1-[1-(4-Cyanobenzyl)-1H-imidazol-5-yl]methyl-3-[N-(2-methoxyethyl)-N-methyl]carbamoyl-4-(naphthalen-1-yl)-1H-pyrrole]
18 | < 4.30 | 5.34 | < 4.30 |  | COCCN(C)C(=O)c1sc(Cc2cncn2CC2CCN(C(=O)OCc3ccccc3)CC2)nc1-c1cccc2ccccc12 [Compound 151]
19 |  |  | > 4.70 |  | COCCN(C)C(=O)c1cn(Cc2cncn2CCC(C)C)cc1-c1cccc2ccccc12 [Compound 120]
20 |  |  | > 4.52 |  | COCCCn1cncc1Cn1cc(C(=O)N(C)CCOC)c(-c2cccc3ccccc23)c1 [Compound 122]
21 | 7.00 | 7.52 |  | 6.82 | COCCN(C)C(=O)c1cn(Cc2cncn2CC2CCN(C(=O)OC)CC2)nc1-c1cccc2ccccc12 [Compound 153, 1-[1-(1-Methoxycarbonylpiperidin-4-ylmethyl)-1H-imidazole-5-ylmethyl]-4-[N-(2-methoxyethyl)-N-methyl]-carbamoyl-3-(naphthalen-1-yl)-1H-pyrazole]
22 | 8.22 | 8.40 |  | 7.82 | O=C(c1cn(Cc2cncn2Cc2ccc(Br)cc2)cc1-c1cccc2ccccc12)N1CCOCC1 [Compound 112, 1-[1-(4-Bromobenzyl)-1H-imidazol-5-yl]methyl-3-(morpholin-4yl)carbonyl-4-(naphthalen-1-yl)-1H-pyrrole]
23 | 8.46 | 8.96 |  | 7.60 | COCCN(C)C(=O)c1cn(Cc2cncn2Cc2ccc3c(c2)OCO3)cc1-c1cccc2ccccc12 [Compound 1, 3-[N-(2-Methoxyethyl)-N-methyl]carbamoyl-1-[1-(3,4-methylenedioxybenzyl)-1H-imidazol-5-ylmethyl]-4-(naphthalen-1-yl)-1H-pyrrole]
